# Measurements reported in patent US12714711B2, “Salts of neuroceuticals and uses thereof” (priority 2020, dated 2026).
# Entries after “also recorded” stand apart in the source; their conditions may differ. Read-outs that look alike come from different tables or passages of the source.
# Key:
# [1] = Water solubility at 25° C.; conditions: 25° C.
# MK-801 treated mice = test: Open field test, MK-801 induced hyper-locomotion; conditions: for Recovery rate (%): MK801-treated mice;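 on all read-outs here: adult male C57BL/6J mice, locomotion counted as total photobeam breaks over 60 minutes in an open field photobeam activity system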
# Procedure: All mice were tested with open field task.
# In this study, the mice were placed in a Plexiglas cage (37.5 cm×21.5 cm×18 cm) under 50-65 lux light intensity. Their spontaneous locomotor activities were measured for 60 minutes using the Photobeam Activity System (PAS)-open field (San Diego Instruments, San Diego, Calif., USA). The total number of photo beam breaks of each mouse was measured as an index of locomotor activity.
# The schizophrenia-like behavior, MK801-induced hyperactivity, were tested by open field task.
# All mice were tested in an open field task.
# The schizophrenia-like behavior, NMDA-hypofunction-induced hyperactivity, were tested by open field task.
# The amount of paliperidone administered to Groups 3 and 4 was equal. The schizophrenia-like behavior, MK801-induced hyperactivity, were tested by open field task.
# The amount of paliperidone administered to Groups 3 and 4 was equal. The schizophrenia-like behavior, NMDA-hypofunction-induced hyperactivity, were tested by open field task.
# [2] = Stress study at 40° C./75% relative humidity in a closed system, HPLC analysis; conditions: 40° C./75% RH, 30 days, in the presence of free benzoic acid
# [3] = mice
# Procedure: For the acute study, mice were randomly assigned into one of the five groups listed below. • Group 1: Vehicle control • Group 2: NA (3.77 mg/kg) • Group 3: Clz (10 mg/kg) • Group 4: Clz (10 mg/kg)+NA (3.77 mg/kg) • Group 5: Clz:NA 1:1 salt (13.77 mg/kg)
# For the repeated dose study, two cohorts of mice were used. In cohort 1, mice were randomly assigned into one of the three groups listed below. • Group 1: Vehicle control • Group 2: Clz (10 mg/kg) • Group 3: Clz:NA 1:1 salt (13.77 mg/kg)
# In cohort 2, the mice were randomly assigned into one of the three groups listed below. • Group 1: Vehicle control • Group 2: Clz (3 mg/kg) • Group 3: Clz:NA 1:1 salt (4.13 mg/kg)
# To assess glucose tolerance, mice were fasted overnight on day 18 (for cohort 1) and on day 35 (for cohort 2), and their blood glucose response to i.p. administration of glucose (2 g/kg) was determined. Blood glucose levels were assessed in the whole blood collected from the tail vein, 60 min after drug administration Immediately following this glucose measurement, all mice were subjected to a glucose tolerance test by receiving an intraperitoneal challenge injection of 2 g/kg of glucose, and blood glucose levels were measured at 0, 30, 60 and 120 minutes.
# Mice used in this study were randomly assigned into one of the six following groups: • Group 1: Vehicle control • Group 2: Clz (10 mg/kg) • Group 3: Clz (10 mg/kg)+enriched TA (22.5 mg/kg) • Group 4: Clz (10 mg/kg)+enriched TA (11.3 mg/kg) • Group 5: Clz:enriched TA 2:1 salt (32.5 mg/kg) • Group 6: Clz:enriched TA 4:1 salt (21.3 mg/kg)
# One day before the glucose tolerance test, the mice fasted overnight and the blood glucose levels were measured in whole blood collected from the tail vein. Glucose levels were measured using a portable glucose meter (Contour® Plus, Bayer AG, Leverkusen, Germany) 60 min after they were acutely administered with the treatments indicated above Immediately following this glucose measurement, all mice were subjected to a glucose tolerance test by receiving an intraperitoneal challenge injection of 2 g/kg of glucose. Blood glucose levels were measured at 30, 60 and 120 minutes.
# Two cohorts of mice were used in this study. […]
# [4] = fasting glucose
# Procedure: The testing compounds were administered to mice either through intraperitoneal (i.p.) injection or oral gavage before analyzing blood glucose levels.
# For the acute study, two cohorts of mice were used.
# For repeated-dose study, mice were randomly assigned into five groups as listed below. • Group 1: Vehicle control • Group 2: Clz (3 mg/kg) • Group 3: Clz:NA 1:1 salt (4.13 mg/kg) • Group 4: Clz (10 mg/kg) • Group 5: Clz:NA 1:1 salt (13.77 mg/kg)
# The night before blood glucose levels were measured, the mice were fasted. Blood glucose levels were measured with a portable glucose meter (Contour® Plus, Bayer AG, Leverkusen, Germany) After waiting for 60 min, the treatments indicated above were administered. FIG. 75 illustrates the experimental design of this study.
# Two cohorts of mice were used in this study. In cohort 1, mice were randomly assigned into the five groups listed below: • Group 1: Vehicle control • Group 2: NA (3.94 mg/kg) • Group 3: Olz (10 mg/kg) • Group 4: Olz (10 mg/kg)+NA (3.94 mg/kg) • Group 5: Olz:NA 1:1 salt (13.94 mg/kg)
# Dosing occurred 60 min prior to measuring blood glucose levels.
# In cohort 2, mice were randomly assigned into the five groups listed below: • Group 1: Vehicle control • Group 2: Olz (5 mg/kg) • Group 3: Olz:NA 1:1 salt (6.97 mg/kg) • Group 4: Olz (10 mg/kg) • Group 5: Olz:NA 1:1 salt (13.94 mg/kg)
# The night before the glucose tolerance test, the mice fasted. Blood glucose levels were measured in whole blood that was collected from the mouse's tail vein. Glucose levels were measured with a portable glucose meter (Contour® Plus, Bayer AG, Leverkusen, Germany), with the measurement occurring 60 min after the mice were dosed with the treatments indicated above Immediately following the glucose measurement, all mice were subjected to a glucose tolerance test, which involved an intraperitoneal challenge injection of 1 g/kg of glucose, followed by measuring blood glucose levels at 0, 30, 60 and 120 minutes.
compound,measurement,setting,value
CN1CCN(C2=Nc3cc(Cl)ccc3Nc3ccccc32)CC1.O=C(O)c1ccccc1 [clozapine:benzoic acid 1:1 salt],water solubility,[1],1.58 mg/mL
same,Recovery rate (%),MK-801 treated mice; dosage of clozapine 1 mg/kg (benzoic acid salt study),85.8%
same,Degradation during the stress study (HPLC before vs after),[2],did not degrade; also recorded: more stable than clozapine
Cc1cc2c(s1)Nc1ccccc1N=C2N1CCN(C)CC1.O=C(O)c1cccnc1 [olanzapine:nicotinic acid 1:1 salt],blood glucose levels during glucose tolerance test compared to vehicle,"[3]; single i.p. dose, olanzapine 5 mg/kg or salt 6.97 mg/kg, glucose 1 g/kg i.p.",significantly higher than vehicle control group at 120 min after glucose challenge
same,blood glucose levels during glucose tolerance test compared to vehicle,"[3]; single i.p. dose, olanzapine 10 mg/kg or salt 13.94 mg/kg, glucose 1 g/kg i.p.",significantly higher than vehicle control group at 120 min after glucose challenge and remained lower than the olanzapine (10 mg/kg) group at all time points
same,blood glucose levels during glucose tolerance test compared to vehicle,"[3]; single oral dose, olanzapine 10 mg/kg, NA 3.94 mg/kg, mixture, or salt 13.94 mg/kg","high glucose levels only after 60 mins, before returning to normal glucose levels 120 min post glucose challenge"
same,Rate of reduce olanzapine-induced hyperglycemia (%),"[4]; acute i.p., dosage of olanzapine 5 mg/kg",57.6%
same,Rate of reduce olanzapine-induced hyperglycemia (%),"[4]; acute i.p., dosage of olanzapine 10 mg/kg",38.4%
same,Rate of reduce olanzapine-induced hyperglycemia (%),"[4]; acute oral, dosage of olanzapine 10 mg/kg",50.5%
same,Recovery rate (%),MK-801 treated mice; dosage of olanzapine 0.1 mg/kg,47.9%
same,locomotor activity in MK-801 treated mice,"MK-801 treated mice; oral olanzapine 0.1 mg/kg or nicotinic acid salt 0.14 mg/kg, MK-801 0.2 mg/kg i.p.",significant decrease in MK-801-induced hyper-locomotion
